These results are taken from PubChem BioAssay (NCI).

Holding throughout (experiment): NCI-60 cell line screen, 48 h
Experiment [1] concerns MALME-3M melanoma.
For experiment [2], the system named is EKVX NSCLC.
Experiment [3] has as its system KM20L2 colon.
The test system of experiment [4] is LXFL 529 NSCLC.
The subject of experiment [5] is RXF 393 renal.
Experiment [6] deals with NCI-H460 lung.
In experiment [7] the test system is M14 melanoma.
Experiment [8] deals with NCI-H226 lung.
Experiment [9] relates to M19-MEL melanoma.
Experiment [10] deals with DMS 273 small cell lung.
Experiment [11] relates to SK-MEL-28 melanoma.
The test system of experiment [12] is 786-0 renal.
In experiment [13] the test system is DMS 114 small cell lung.

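Where inhibition never reached the appropriate level, the endpoint shown equals the highest concentration tested. Otherwise, values were interpolated linearly from a five-concentration, 48-hour dose response in 96-well plates. The concentration for full growth arrest is given as TGI.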

`COC(=O)C1C=CCON2CCc3c(n(C)c4ccccc34)C12` (stereo not drawn): the TGI in experiment [1], in [2], in experiment [3], in [4], in [5] and in experiment [6] was above 100 µM in each case. The TGI in experiment [7], in experiment [8], in experiment [9], in experiment [10], in experiment [11] and in [12] was above 100 µM throughout. Also, the TGI in experiment [13] is above 100 µM.

For `O=[N+]([O-])c1ccccc1S(=O)(=O)c1ccccc1`, the TGI in [1], in experiment [2], in experiment [3], in experiment [4], in experiment [5] and in experiment [6] was above 100 µM in each case. The TGI in experiment [7], in [8], in experiment [9], in experiment [10], in experiment [11] and in experiment [13] was above 100 µM each time.

With `C=CCc1cc(-c2cc(CC=C)c(O)c(CN(CC)CC)c2)cc(CN(CC)CC)c1O`, the TGI in [1] was 32.8 µM; in [2], above 100 µM; in experiment [3], 40 µM; in [4] it was above 100 µM; in experiment [5] it was 52 µM; in [6], 64.9 µM. Further, the TGI in [7] is 23.4 µM; in experiment [8], 98.7 µM; in experiment [9] it was 43.8 µM; in experiment [10] it was 82.5 µM; in experiment [11], 80.6 µM; in [12] it was above 100 µM. Further, the TGI in [13] is above 100 µM.

On to `Cc1nc2c(o1)C(=Nc1ccccc1)c1ccccc1C2=O`, for which the TGI in [1] was found to be 12.3 µM; in [2], 27.1 µM; in [3] it was 31.2 µM; in experiment [4] it was 24.1 µM; in experiment [5] it was 44 µM; in [6], 25.5 µM. Moreover, the TGI in experiment [7] is 21.4 µM; in [9], 3.65 µM; in experiment [10], 23.2 µM; in experiment [12], 28.5 µM; in experiment [13], 8.57 µM.

Consider `CCN(CC)c1ccc(N=Nc2ccc([N+](=O)[O-])cc2OC(=O)/C=C/c2ccccc2)c(OC(=O)/C=C/c2ccccc2)c1`, for which the TGI in [1] was above 100 µM; in experiment [2], above 100 µM; in experiment [4] it was above 100 µM; in experiment [5], above 100 µM; in experiment [6], 11.1 µM; in [7] it was above 100 µM. The TGI was above 100 µM in experiment [8]; above 100 µM in experiment [9]; above 100 µM in [10]; above 100 µM in experiment [11]; above 100 µM in experiment [12]; above 25.2 µM in experiment [13].

Consider `O=c1cc(-c2c[nH]c3ccccc23)[nH]c2cc3c(cc12)OCO3`, for which the TGI in [1], in experiment [2], in [3], in experiment [4], in experiment [5] and in [6] was above 100 µM in each case. In addition, the TGI in experiment [7], in experiment [8], in experiment [9], in experiment [10], in experiment [11] and in [12] was above 100 µM in each case. Also, the TGI in [13] was above 100 µM.

Turning to `CCC/C=C1\CCC(CN(C)C)C1=O` (stereo not drawn), the TGI in [1] was 11.4 µM; in experiment [2], 12.3 µM; in [3], 27.2 µM; in [4] it was 3.33 µM; in [6] it was above 63.2 µM; in [7], 16.1 µM. Further, the TGI was determined as 35.1 µM in experiment [8]; 26.7 µM in [9]; 27.1 µM in experiment [10]; 14.9 µM in experiment [11]; 7.16 µM in experiment [12]; 31.2 µM in [13].

With `COP(=O)(OC)C(NC(=O)C(F)(F)F)(c1ccccc1)C(F)(F)F` (stereo not drawn), the TGI in experiment [1], in [2], in experiment [3], in [5], in [6] and in experiment [7] was above 100 µM in each case. For the same compound, the TGI in experiment [8], in [9], in experiment [10], in experiment [11], in experiment [12] and in experiment [13] was above 100 µM in each case.

As for `O=C1C=C2SC3C[C@@]24CC1[N+]1=c2c4c(c(O)c4c2=C(C=N4)CC1)N3`, the TGI in experiment [1] was determined as 3.3 µM; in experiment [2], 4.8 µM; in [3], 3.81 µM; in [5], 3.84 µM; in experiment [6], 9.03 µM; in [8], 4.76 µM. The TGI in experiment [9] was determined as 3.44 µM; in experiment [10], 4.12 µM; in experiment [11], 4.09 µM; in experiment [13], 2.85 µM.

Turning to `O=C1C=CC(=C(c2ccc(O)cc2)c2ccc(O)cc2)C=C1`, the TGI in [1] worked out at 24.9 µM; in experiment [2], 28.6 µM; in experiment [3], 30.7 µM; in experiment [4], 10.8 µM; in experiment [5], 16.9 µM; in experiment [6], 30.5 µM. The TGI was 26.4 µM in experiment [7]; 37.5 µM in [8]; 19.9 µM in experiment [10]; 25.3 µM in experiment [11]; 26.5 µM in experiment [12]; 7.54 µM in experiment [13].

As for `CCCC(C)n1c(C)nc2c1C(=O)c1ccccc1C2=O` (stereo not drawn), the TGI in experiment [1] was 67 µM; in experiment [2] it was above 100 µM; in experiment [3] it was above 100 µM; in experiment [4], above 100 µM; in experiment [5] it was 69.2 µM; in experiment [6], 16.8 µM. The TGI in experiment [7] is 93.7 µM; in experiment [8], above 100 µM; in experiment [9] it was 29.1 µM; in experiment [10], 30.8 µM; in [11], above 100 µM; in experiment [12] it was above 100 µM.

Regarding `COc1cc(CNc2cnc3cc(N)ccc3n2)cc(OC)c1OC`, the TGI was above 100 µM in experiment [1]; above 100 µM in [2]; 37.7 µM in experiment [3]; above 100 µM in experiment [4]; above 100 µM in experiment [6]; 74.3 µM in experiment [7]. Also, the TGI was above 100 µM in [9]; 2.43 µM in experiment [10]; above 100 µM in [11]; above 100 µM in [12]; 61 µM in experiment [13].
